The values that follow come from PubChem BioAssay AID1259407 (Chemical Carcinogenesis Research Information System (CCRIS), 2018).

The source made the active and inactive calls. No rule for the calls is given here.

The data set concerns CCRIS mutagenicity, Ames/micronucleus/aberration tests. Kind of data set: CCRIS mutagenicity studies.
Where [1] appears, read: Test System: AMES SALMONELLA TYPHIMURIUM, Strain/Indicator: TA98, Metabolic Activation: NONE, Method: PREINCUBATION
[2] abbreviates: Test System: AMES SALMONELLA TYPHIMURIUM, Strain/Indicator: TA100, Metabolic Activation: NONE, Method: PREINCUBATION
Where [3] appears, read: Test System: AMES SALMONELLA TYPHIMURIUM, Strain/Indicator: TA1535, Metabolic Activation: NONE, Method: PREINCUBATION
[4] abbreviates: Test System: AMES SALMONELLA TYPHIMURIUM, Strain/Indicator: TA1537, Metabolic Activation: NONE, Method: PREINCUBATION
[5] abbreviates: Test System: AMES SALMONELLA TYPHIMURIUM, Strain/Indicator: TA98, Metabolic Activation: NONE, Method: STANDARD PLATE.
The mark [6] stands for this setting: Test System: AMES SALMONELLA TYPHIMURIUM, Strain/Indicator: TA98, Metabolic Activation: S-9, Method: STANDARD PLATE.
Setting [7] is: Test System: AMES SALMONELLA TYPHIMURIUM, Strain/Indicator: TA100, Metabolic Activation: NONE, Method: STANDARD PLATE.
Setting [8] is: Test System: AMES SALMONELLA TYPHIMURIUM, Strain/Indicator: TA100, Metabolic Activation: S-9, Method: STANDARD PLATE.
Where [9] appears, read: Test System: AMES SALMONELLA TYPHIMURIUM, Strain/Indicator: TA98, Metabolic Activation: HAMSTER, LIVER, S-9, AROCLOR 1254, Method: PREINCUBATION
[10] abbreviates: Test System: AMES SALMONELLA TYPHIMURIUM, Strain/Indicator: TA98, Metabolic Activation: RAT, LIVER, S-9, AROCLOR 1254, Method: PREINCUBATION
[11] abbreviates: Test System: AMES SALMONELLA TYPHIMURIUM, Strain/Indicator: TA100, Metabolic Activation: HAMSTER, LIVER, S-9, AROCLOR 1254, Method: PREINCUBATION
Setting [12] is: Test System: AMES SALMONELLA TYPHIMURIUM, Strain/Indicator: TA100, Metabolic Activation: RAT, LIVER, S-9, AROCLOR 1254, Method: PREINCUBATION
Setting [13] is: Test System: AMES SALMONELLA TYPHIMURIUM, Strain/Indicator: TA102, Metabolic Activation: NONE, Method: STANDARD PLATE.
Where [14] appears, read: Test System: AMES SALMONELLA TYPHIMURIUM, Strain/Indicator: TA1535, Metabolic Activation: HAMSTER, LIVER, S-9, AROCLOR 1254, Method: PREINCUBATION
[15] abbreviates: Test System: AMES SALMONELLA TYPHIMURIUM, Strain/Indicator: TA1535, Metabolic Activation: RAT, LIVER, S-9, AROCLOR 1254, Method: PREINCUBATION
[16] abbreviates: Test System: AMES SALMONELLA TYPHIMURIUM, Strain/Indicator: TA1537, Metabolic Activation: HAMSTER, LIVER, S-9, AROCLOR 1254, Method: PREINCUBATION
Setting [17] is: Test System: AMES SALMONELLA TYPHIMURIUM, Strain/Indicator: TA1537, Metabolic Activation: RAT, LIVER, S-9, AROCLOR 1254, Method: PREINCUBATION

As for `Cc1ccc2c(c1)C(C)c1ccccc1-2` (centres undefined), the mutagenic call is “inactive; negative” (Test System: AMES SALMONELLA TYPHIMURIUM, Strain/Indicator: TA98, Metabolic Activation: RAT, LIVER, S-9, AROCLOR 1254, Method: STANDARD PLATE) and “active; positive” (Test System: AMES SALMONELLA TYPHIMURIUM, Strain/Indicator: TA100, Metabolic Activation: RAT, LIVER, S-9, AROCLOR 1254, Method: STANDARD PLATE).

For the compound `O=C1CSC(=S)N1`, the mutagenic call runs as follows: (Test System: AMES SALMONELLA TYPHIMURIUM, Strain/Indicator: TA98, Metabolic Activation: HAMSTER, LIVER, S-9, AROCLOR 1254 (10%), Method: PREINCUBATION) “inactive; negative”; under setting [1], “inactive; negative”; (Test System: AMES SALMONELLA TYPHIMURIUM, Strain/Indicator: TA98, Metabolic Activation: RAT, LIVER, S-9, AROCLOR 1254 (10%), Method: PREINCUBATION) “inactive; negative”; (Test System: AMES SALMONELLA TYPHIMURIUM, Strain/Indicator: TA100, Metabolic Activation: HAMSTER, LIVER, S-9, AROCLOR 1254 (10%), Method: PREINCUBATION) “inactive; negative”; under setting [2], “inactive; negative”; (Test System: AMES SALMONELLA TYPHIMURIUM, Strain/Indicator: TA100, Metabolic Activation: RAT, LIVER, S-9, AROCLOR 1254 (10%), Method: PREINCUBATION) “inactive; negative”. Besides, the mutagenic call was “inactive; negative” (Test System: AMES SALMONELLA TYPHIMURIUM, Strain/Indicator: TA1535, Metabolic Activation: HAMSTER, LIVER, S-9, AROCLOR 1254 (10%), Method: PREINCUBATION); “inactive; negative” under setting [3]; “inactive; negative” (Test System: AMES SALMONELLA TYPHIMURIUM, Strain/Indicator: TA1535, Metabolic Activation: RAT, LIVER, S-9, AROCLOR 1254 (10%), Method: PREINCUBATION); “inactive; negative” (Test System: AMES SALMONELLA TYPHIMURIUM, Strain/Indicator: TA1537, Metabolic Activation: HAMSTER, LIVER, S-9, AROCLOR 1254 (10%), Method: PREINCUBATION); “inactive; negative” under setting [4]; “inactive; negative” (Test System: AMES SALMONELLA TYPHIMURIUM, Strain/Indicator: TA1537, Metabolic Activation: RAT, LIVER, S-9, AROCLOR 1254 (10%), Method: PREINCUBATION).

In the case of `c1ccc2c(c1)ccc1c2ccc2ccc3ccccc3c21`, the mutagenic call was “active; positive” (Test System: AMES SALMONELLA TYPHIMURIUM, Strain/Indicator: TA100, Metabolic Activation: RAT, LIVER, MICROSOMES, AROCLOR 1254, Method: STANDARD PLATE); “inactive; negative” (Test System: AMES SALMONELLA TYPHIMURIUM, Strain/Indicator: TA100, Metabolic Activation: RAT, LIVER, MICROSOMES, BENZO[C]CHRYSENE, Method: STANDARD PLATE); “inactive; negative” (Test System: AMES SALMONELLA TYPHIMURIUM, Strain/Indicator: TA100, Metabolic Activation: RAT, LIVER, MICROSOMES, Method: STANDARD PLATE).

On to `COc1cccc(/C=C/c2ccc(N)cc2)c1`, for which the mutagenic call runs as follows: (Test System: AMES SALMONELLA TYPHIMURIUM, Strain/Indicator: TA98(1,8-DNP6), Metabolic Activation: NONE, Method: STANDARD PLATE) “inactive; negative”; (Test System: AMES SALMONELLA TYPHIMURIUM, Strain/Indicator: TA98(1,8-DNP6), Metabolic Activation: S-9, Method: STANDARD PLATE) “active; positive”; under setting [5], “active; positive”; under setting [6], “active; positive”; under setting [7], “inactive; negative”; under setting [8], “active; positive”.

On to `CN=C([S-])N/N=C/C(C)=N/NC([S-])=NC.[Cu+2]`, for which the mutagenic call is “inactive; negative” under setting [5]; “inactive; negative” (Test System: AMES SALMONELLA TYPHIMURIUM, Strain/Indicator: TA98, Metabolic Activation: RAT, LIVER, S-9, AROCLOR, Method: STANDARD PLATE); “inactive; negative” under setting [7]; “inactive; negative” (Test System: AMES SALMONELLA TYPHIMURIUM, Strain/Indicator: TA100, Metabolic Activation: RAT, LIVER, S-9, AROCLOR, Method: STANDARD PLATE).

Take `COc1ccc(O)cc1`: the mutagenic call runs as follows: (Test System: AMES SALMONELLA TYPHIMURIUM, Strain/Indicator: TA97, Metabolic Activation: NONE, Method: STANDARD PLATE) “inactive; negative”; (Test System: AMES SALMONELLA TYPHIMURIUM, Strain/Indicator: TA97, Metabolic Activation: S-9, Method: STANDARD PLATE) “inactive; negative”; under setting [9], “inactive; negative”; under setting [1], “inactive; negative”; under setting [5], “inactive; negative”; under setting [10], “inactive; negative”. Besides, the mutagenic call was “inactive; negative” under setting [6]; “inactive; negative” under setting [11]; “inactive; negative” under setting [2]; “inactive; negative” under setting [7]; “inactive; negative” under setting [12]; “inactive; negative” under setting [8]. Further, the mutagenic call runs as follows: under setting [13], “inactive; negative”; (Test System: AMES SALMONELLA TYPHIMURIUM, Strain/Indicator: TA102, Metabolic Activation: S-9, Method: STANDARD PLATE) “inactive; negative”; under setting [14], “inactive; negative”; under setting [3], “inactive; negative”; under setting [15], “inactive; negative”; under setting [16], “inactive; negative”. The mutagenic call is “inactive; negative” under setting [4]; “inactive; negative” under setting [17]; “inactive; negative” (Test System: E.COLI, Strain/Indicator: WP2 (PKM101), Metabolic Activation: NONE, Method: STANDARD PLATE); “inactive; negative” (Test System: E.COLI, Strain/Indicator: WP2 (PKM101), Metabolic Activation: S-9, Method: STANDARD PLATE).

For `CN[C@@H]1[C@H](O[C@H]2[C@H](O[C@H]3[C@H](O)[C@@H](O)[C@H](N=C(N)N)[C@@H](O)[C@@H]3N=C(N)N)O[C@@H](C)[C@]2(O)C=O)O[C@@H](CO)[C@H](O)[C@H]1O`, the mutagenic call reads like this: under setting [9], “inactive; negative”; under setting [1], “inactive; negative”; under setting [10], “inactive; negative”; under setting [11], “inactive; negative”; under setting [2], “inactive; negative”; under setting [12], “inactive; negative”. In addition, the mutagenic call was “active; positive” under setting [13]; “active; positive” (Test System: AMES SALMONELLA TYPHIMURIUM, Strain/Indicator: TA102, Metabolic Activation: RAT, LIVER, S-9, AROCLOR 1254, Method: STANDARD PLATE); “inactive; negative” under setting [14]; “inactive; negative” under setting [3]; “inactive; negative” under setting [15]; “inactive; negative” under setting [16]. The mutagenic call by setting is: under setting [4], “inactive; negative”; under setting [17], “inactive; negative”; (Test System: AMES SALMONELLA TYPHIMURIUM, Strain/Indicator: TA2638A, Metabolic Activation: NONE, Method: STANDARD PLATE) “inactive; negative”.
